Results on four compounds are retold here after US20240166639A1, “POTENT AND SELECTIVE COMPOUNDS AS SEROTONIN 1B RECEPTOR MODULATORS” (LEUKOS BIOTECH, S.L., priority 2020, published 2024).

One data set deals with human 5-HT1B receptor (Homo sapiens (Human), UniProt P28222). In words: Competition binding in human 5-HT1B receptor. The note with it: [3H]-GR125743, Hela-5-HT1B membranes; read-out: h5-HT1B Ki. As to the method:
Serotonin 5-HT1B receptor competition binding experiments were carried out in a polypropylene 96-well plate. In each well was incubated 5 μg of membranes from Hela-5-HT1B cell line prepared in the laboratory (Lot: A001/14-11-2011, protein concentration=3179 μg/ml), 1.5 nM [^3H]-GR125743 ([…], 0.1 mCi/ml, Perkin Elmer NET1172100UC) and compounds studied and standard. Non-specific binding was determined in the presence of GR55562 10 μM (TOCRIS 1054). The reaction mixture (Vt: 250 μl/well) was incubated at 25° C. for 90 min, 200 μL was transfered to GF/C 96-well plate (Millipore, Madrid, Spain) pretreated with 0.5% of PEI and treated with binding buffer (Tris-HCl 50 mM, EDTA 1 mM, MgCl2 10 mM, pH=7.4), after was filtered and washed four times with 250 μl wash buffer (Tris-HCl 50 mM, pH=7.4), before measuring in a microplate beta scintillation counter (Microbeta Trilux, PerkinElmer, Madrid, Spain). […] From the IC50 the Ki is calculated according to the following formula: […]
(§1) Being: • IC50: inhibitory concentration, • D: real concentration of radioligand and • Kd: dissociation constant (affinity of radioligand to the receptor).

For another data set, the target named is human 5-HT2A receptor (Homo sapiens (Human), UniProt P28223). The experiment in a line: Competition binding in human 5-HT2A receptor. Conditions: [3H]-Ketanserin, CHO-5-HT2A membranes; read-out: h5-HT2A Ki. As to the method:
Serotonin 5-HT2A receptor competition binding experiments were carried out in a polypropilene 96-well plate. In each well was incubated 80 μg of membranes from CHO-5-HT2A cell line prepared in the laboratory (protein concentration=4337 μg/ml), 1 nM [^3H]-Ketanserin (47.3 Ci/mmol, 1 mCi/ml, Perkin Elmer NET791250UC) and compounds studied and standard. Non-specific binding was determined in the presence of Methysergide 1 μM (Sigma M137). The reaction mixture (Vt: 250 μl/well) was incubated at 37° C. for 30 min, 200 μL was transfered to GF/B 96-well plate (Millipore, Madrid, Spain) pretreated with 0.5% of PEI and treated with binding buffer (Tris-HCl 50 mM, pH=7.4), after was filtered and washed six times with 250 μl wash buffer (Tris-HCl 50 mM, pH=6.6), before measuring in a microplate beta scintillation counter (Microbeta Trilux, PerkinElmer, Madrid, Spain).
The raw radioactivity data is adjusted to a logistic regression of 4 parameters using GraphPad Prism software, from the specific junction the value of IC50 is obtained. From the IC50 the Ki is calculated according to the following formula: […]
as §1

A further data set has as its system HL-60. The experiment in a line: Cell viability assay, AML cell line HL-60. It counts as cell-based. The note with it: 48 h treatment, live cells by flow cytometry. As to the method:
(§2) 0.15×10^6 AML cell lines (HL-60 or MonoMac-1) per mL were cultured in completed RPMI medium, supplemented with 10% Fetal bovine serum (FBS). Compounds were added to the medium at the concentration indicated (0.1, 1 and 10 μM), while controls were treated with equivalent concentration of vehicle (DMSO). Primary validation screenings were analyzed after 72 h of treatment, EC50 was determined upon 48 h treatments. Cells were stained with the live-dead discrimination dye 7-aminoactinomycin D (7-AAD) and Hoechst 33342 and acquired in a flow cytometer, with a volumetric counting. Live cells were discriminated based on a discrete FSC-SSC profile, 7-AAD negativity and dim positivity to Hoechst 33342. EC50 was calculated with the Prism GraphPad software.

Another data set concerns MonoMac-1. The experiment in a line: Cell viability assay, AML cell line MonoMac-1. It counts as cell-based. The note with it: 48 h treatment, live cells by flow cytometry. As to the method: as §2
For orientation: A flow cytometer gives signals particle by particle.

Data set [1] has as its system human acute myeloid leukemia (AML) cells. The note with it: every 2 days for 14 days, apomorphine 5 mg/kg, methiothepin 0.1 mg/kg, cited from earlier work; for AML burden in bone marrow (BM): vs vehicle.
Data set [2] can be described thus: Healthy blood cells viability assay. It counts as cell-based. Conditions: 48 h treatment, healthy peripheral blood mononuclear cells; read-out: EC50 (uM), cytotoxic capacity on healthy cells. On the procedure: (§3) 0.5×10^6 peripheral blood-mononuclear blood cells per mL were cultured in completed RPM medium, supplemented with 10% FBS. Compounds were added to the medium at 0.5/1/5/10/50 μM, while controls were treated with equivalent concentration of vehicle (DMSO). Upon 48 h treatment, cells were stained with the live-dead discrimination dye 7-AAD and Hoechst 33342, the pan-hernatopoietic surface marker CD45, and acquired in a flow cytometer, with a volumetric counting. Live cells were discriminated based on a discrete FSC-SSC profile, 7-AAD negativity, dim positivity to Hoechst 33342 and CD45 positivity. EC50 was calculated with the Prism GraphPad software.

The subject of data set [3] is peripheral blood-mononuclear blood cells. In words: Healthy blood cells viability assay. It counts as cell-based. Conditions: 48 h treatment, read-out: EC50 (uM), cytotoxic capacity on healthy cells. As to the method: as §3

pEC50, pKi: −log10 of the molar value. Where a name gives a salt, the structure may show the parent alone. Where only a bound is given, the exact number is not on record here.

Sequence of human 5-HT2A receptor (P28223 whole entry): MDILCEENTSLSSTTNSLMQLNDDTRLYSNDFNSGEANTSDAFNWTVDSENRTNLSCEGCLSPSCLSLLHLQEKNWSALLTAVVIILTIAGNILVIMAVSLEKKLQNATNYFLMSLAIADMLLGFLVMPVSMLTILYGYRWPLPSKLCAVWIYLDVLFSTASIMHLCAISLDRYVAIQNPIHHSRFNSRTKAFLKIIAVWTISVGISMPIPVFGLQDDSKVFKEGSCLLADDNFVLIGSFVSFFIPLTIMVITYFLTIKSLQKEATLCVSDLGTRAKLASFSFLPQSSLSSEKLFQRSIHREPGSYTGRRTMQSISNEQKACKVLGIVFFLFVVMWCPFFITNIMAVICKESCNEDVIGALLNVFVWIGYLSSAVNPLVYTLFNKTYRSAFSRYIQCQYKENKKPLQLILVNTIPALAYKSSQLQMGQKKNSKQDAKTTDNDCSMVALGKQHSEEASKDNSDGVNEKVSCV
Sequence of human 5-HT1B receptor (P28222 whole entry): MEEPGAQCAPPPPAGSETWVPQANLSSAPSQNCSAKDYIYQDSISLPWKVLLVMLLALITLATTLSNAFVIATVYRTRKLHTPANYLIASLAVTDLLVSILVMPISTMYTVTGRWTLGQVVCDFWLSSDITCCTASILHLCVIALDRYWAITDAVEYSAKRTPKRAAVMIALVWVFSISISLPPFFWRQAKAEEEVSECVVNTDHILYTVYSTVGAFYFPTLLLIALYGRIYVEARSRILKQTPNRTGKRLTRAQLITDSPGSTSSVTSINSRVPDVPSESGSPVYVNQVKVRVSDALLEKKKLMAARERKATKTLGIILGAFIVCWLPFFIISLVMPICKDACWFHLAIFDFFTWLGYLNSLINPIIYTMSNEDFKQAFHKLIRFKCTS

As a reminder, the pKi is the negative decadic logarithm of the Ki, by convention in mol/L. By pEC50 is commonly meant the EC50 on a negative log10 scale, so that one unit is a factor of ten. With `CN1CCc2cccc3c2[C@H]1Cc1ccc(O)c(O)c1-3` [Apomorphine, reference compound], the pKi on human 5-HT1B receptor is 5.76; at human 5-HT2A receptor it was 8.16. Besides, the pEC50 was 5.31 in the data set with HL-60 (Homo sapiens, HL-60) and 4.93 with MonoMac-1 (Mono-Mac-1). In data set [1], the “clonogenic capacity of engrafted AML cells” value is reported as “impaired”. Also, the “AML burden in bone marrow (BM)” value in data set [1] is “significant reduction”.
By EC50 is commonly meant the concentration giving half of the maximal effect. On to `Cc1nc(-c2ccc(-c3ccc(C(=O)Nc4cc(OCCN(C)C)c(C#N)cn4)cn3)c(Cl)c2)no1` [Example 47, 6-(2-chloro-4-(5-methyl-1,2,4-oxadiazol-3-yl)phenyl)-N-(5-cyano-4-(2 (dimethylamino)ethoxy)pyridin-2-yl)nicotinamide], for which the pKi on human 5-HT1B receptor was 8.01; on human 5-HT2A receptor it was under 5.00. Besides, the pEC50 was 5.18 with HL-60 (Homo sapiens, HL-60) and 5.39 in the data set with MonoMac-1 (Mono-Mac-1). In addition, in data set [2], the EC50 at 48 h was 25 µM.
Regarding `CSc1ccc2c(c1)C(N1CCN(C)CC1)Cc1ccccc1S2` (stereo not drawn) [methiothepin], in data set [1], the “clonogenic capacity of engrafted AML cells” value is “impaired” and the “AML burden in bone marrow (BM)” value was “significant reduction”.
Take `COc1ccc(NC(=O)c2ccc(-c3ccc(-c4noc(C)n4)cc3C)cc2)cc1OCCN(C)C` [SB41, N-[3-[3-(Dimethylamino)ethoxy]-4-methoxyphenyl]-2′-methyl-4′-(5-methyl-1,2,4-oxadiazol-3-yl)-[1,1′-biphenyl]-4-carboxamide hydrochloride, reference compound]: the pKi was 9.22 on human 5-HT1B receptor and 6.84 at human 5-HT2A receptor. Further, the results for the pEC50 in the data set with HL-60 and in the data set on MonoMac-1 were 5.14 and 5.61, respectively. Also, the EC50 in data set [3] stood at 12.5 µM.
